Laboratory results published in patent publication US8680076B2, “Methods of treatment, improvement and prevention using haloaryl substituted aminopurines” (Signal Pharmaceuticals, LLC, priority 2010, dated 2014).
Entries after “also recorded” stand apart in the source; their conditions may differ.

What was measured:
[1] = tested on: fibroblasts from SSc patients; experiment: MTT assay, SSc fibroblast viability; assay type: cell-based, human; conditions: 1 μM, 24-hr incubation
Protocol: Dermal fibroblasts from two SSc patients were treated for 24 hours (hr) with Compound JNKi-1 at concentrations from 0.1 μM to 10 μM (0.5% DMSO/99.5% cell culture media). To study the effect of Compound JNKi-1 on growth factor-induced collagen expression, recombinant transforming growth factor beta (TGF-β) (final concentration of 10 ng/mL) or platelet-derived growth factor-BB (PDGF-BB) (final concentration of 40 ng/mL) were added to cells 2 hr after the addition of JNK-inhibitor Compound JNKi-1 for 24 hr. The expression of collagen proteins was analyzed by SirCol assay. The messenger ribonucleic acid (mRNA) levels of extracellular proteins were measured by real-time polymerase chain reaction (PCR). The β-actin mRNA was used as internal control for the measurement of Collagen 1a1 mRNA using PCR. Fibroblast proliferation assay was performed in the presence or absence of 1 μM Compound JNKi-1 for 24 hr with the (3-(4,5-Dimethylthiazol-2-yl)-2,5-diphenyltetrazolium bromide) (MTT) assay.
The isolation of fibroblasts from human SSc patients and culture conditions used in this study have been previously described (Akhmetshina A, Dees C, Pileckyte M, Maurer B, Axmann R, Jüngel A, et al., Dual inhibition of c-abl and PDGF receptor signaling by dasatinib and nilotinib for the treatment of dermal fibrosis, FASEB J. 2008; 22(7):2214-22). […] Data are expressed as mean±standard error of the mean (SEM).

[2] = tested on: mice, bleomycin-induced pre-established dermal fibrosis; experiment: Modified model of bleomycin-induced dermal fibrosis (regression of established fibrosis); assay type: in vivo, mouse
Description: To evaluate, whether inhibition of JNK might also be effective for the treatment of established fibrosis, a modified model of bleomycin-induced dermal fibrosis was used. […] Thus, Compound JNKi-1 decreased the level of dermal thickness under the pre-treatment level (127±4% vs 175±8% compared to NaCl injections for 6 weeks, p=0.008 and p=0.021) (FIG. 7A).

[3] = 150 mg/kg for the last 3 weeks of 6 weeks bleomycin

For `O[C@H]1CC[C@H](Nc2ncc3nc(Nc4c(F)cc(F)cc4F)n([C@H]4CCOC4)c3n2)CC1` [JNKi-1, 4-((9-((3S)-tetrahydro-3-furanyl)-8-((2,4,6-trifluorophenyl)amino)-9H-purin-2-yl)amino)-trans-cyclohexanol], the “cytotoxic effect / cell viability (MTT)” value [1] was “does not exert its inhibitory effects indirectly by reducing cell viability; also recorded: no cytotoxic effect”, the “dermal thickness, normalized to NaCl injections for 6 weeks = 100%” value ([2]; 150 mg/kg BID for the last 3 weeks of 6 weeks bleomycin) was 127±4% and the “accumulation of collagen (hydroxyproline assay)” value [2, 3] was “significantly reduced”. For the same molecule, the “number of myofibroblasts, normalized to NaCl injections for 6 weeks = 100%” value [2, 3] was 171±31% and the “regression of established fibrosis / dermal thickening (in words)” value ([2]; treatment for the last 3 weeks of continuous bleomycin challenge) was “induced regression of dermal thickening; also recorded: induced regression of fibrosis”.
